Results published in patent US9745261B2, “Inhibitors of the MITF molecular pathway” (THE GENERAL HOSPITAL CORPORATION, priority 2013, dated 2017).

What was measured:
A375 cells = assay: A-375 cell cytotoxicity assay (CellTiter-Glo); format: cell-based, human; settings: Homo sapiens, A-375; 24 hours, CellTiter-Glo; read-out: Antitarget Potency IC50 (μM) A375
Description: A375 cells were treated with compounds for 24 hours, and then cell viability was measured using the CellTiter-Glo Assay (Promega), a luciferase-based reagent that measures cellular ATP levels. The compounds were tested at different concentrations to determine IC50 values. Compounds that were active in the primary assay and were not toxic below 30 μM at 24 hours were considered for probe development. Data were normalized against DMSO in Genedata Screener's Assay Analyzer.
A-375 cells were maintained in DMEM (10% FBS, 1% Pen-Strep-Glutamine). Cells were fluid changed every 3 days and/or split upon reaching 90% confluency. For secondary assays, cells were thawed at 2 million cells per Falcon T175 flask. After 3 days, cells were passed to a Corning Triple flask (6-8 million cells) and plated after 3 days in the triple flask.
Day 1 • 1. Plate A-375 cells at 3,000 per well in 30 uL media (phenol red free DMEM/10% Fetal Bovine Serum/Penicillin/Streptomycin/L-Glutamine) • 2. Use Corning white 384-well, square, opaque-bottomed plates (Corning Catalog No. 8867BC)
Day 2 • 3. Pin 100 nL compound/DMSO solution (Cybi Well) into assay plates. (For HTS, required sentinel pinning with the positive control, parthenolide (6 mM)) • 4. Incubate 24 hours at 37° C. in Liconic incubator.
Day 3 • 5. […] Read on the Perkin-Elmer EnVision plate reader with luminescence (LUM) settings for 0.1 sec per well. […]

Adenosine A1 = molecular target: T1, Adenosine A1 (Homo sapiens, UniProt P30542); assay: Radioligand binding, Adenosine A1
T1 construct: Eurofins Panlabs, Inc. (contract assay) 200510 (assay number)

Adenosine A3 = molecular target: T2, Adenosine A3 (Homo sapiens, UniProt P0DMS8); assay: Radioligand binding, Adenosine A3
T2 construct: Eurofins Panlabs, Inc. (contract assay) 200720 (assay number)

Adrenergic α1A = molecular target: T3, Adrenergic α1A (Rattus norvegicus, UniProt P43140); assay: Radioligand binding, Adrenergic α1A
T3 construct: Eurofins Panlabs, Inc. (contract assay) 203100 (assay number)

Adrenergic α1D = molecular target: T4, Adrenergic α1D (Homo sapiens, UniProt P25100); assay: Radioligand binding, Adrenergic α1D
T4 construct: Eurofins Panlabs, Inc. (contract assay)

Adrenergic α2A = molecular target: T5, Adrenergic α2A (Homo sapiens, UniProt P08913); assay: Radioligand binding, Adrenergic α2A
T5 construct: Eurofins Panlabs, Inc. (contract assay)

Adrenergic β2 = molecular target: T6, Adrenergic β2 (Homo sapiens, UniProt P07550); assay: Radioligand binding, Adrenergic β2
T6 construct: Eurofins Panlabs, Inc. (contract assay)

Bradykinin B1 = molecular target: T7, Bradykinin B1 (Homo sapiens, UniProt P46663); assay: Radioligand binding, Bradykinin B1
T7 construct: Eurofins Panlabs, Inc. (contract assay)

Calcium Channel N-Type = molecular target: T8, Calcium Channel N-Type (Rattus norvegicus, UniProt Q02294); assay: Radioligand binding, Calcium Channel N-Type
T8 construct: Eurofins Panlabs, Inc. (contract assay)

Cannabinoid CB1 = molecular target: T9, Cannabinoid CB1 (Homo sapiens, UniProt P21554); assay: Radioligand binding, Cannabinoid CB1
T9 construct: Eurofins Panlabs, Inc. (contract assay)

Dopamine D1 = molecular target: T10, Dopamine D1 (Homo sapiens, UniProt P21728); assay: Radioligand binding, Dopamine D1
T10 construct: Eurofins Panlabs, Inc. (contract assay)

Endothelin ETA = molecular target: T11, Endothelin ETA (Homo sapiens, UniProt P25101); assay: Radioligand binding, Endothelin ETA
T11 construct: Eurofins Panlabs, Inc. (contract assay)

Endothelin ETB = molecular target: T12, Endothelin ETB (Homo sapiens, UniProt P24530); assay: Radioligand binding, Endothelin ETB
T12 construct: Eurofins Panlabs, Inc. (contract assay)

Glutamate, NMDA, Glycine = molecular target: T13, Glutamate, NMDA, Glycine (Rattus norvegicus, UniProt P35439); assay: Radioligand binding, Glutamate, NMDA, Glycine
T13 construct: Eurofins Panlabs, Inc

Histamine H1 = molecular target: T14, Histamine H1 (Homo sapiens, UniProt P35367); assay: Radioligand binding, Histamine H1
T14 construct: Eurofins Panlabs, Inc

Histamine H2 = molecular target: T15, Histamine H2 (Homo sapiens, UniProt P25021); assay: Radioligand binding, Histamine H2
T15 construct: Eurofins Panlabs, Inc

Histamine H3 = molecular target: T16, Histamine H3 (Homo sapiens, UniProt Q9Y5N1); assay: Radioligand binding, Histamine H3
T16 construct: Eurofins Panlabs, Inc

Muscarinic M2 = molecular target: T17, Muscarinic M2 (Homo sapiens, UniProt P08172); assay: Radioligand binding, Muscarinic M2
T17 construct: Eurofins Panlabs, Inc

Neuropeptide Y Y1 = molecular target: T18, Neuropeptide Y Y1 (Homo sapiens, UniProt P25929); assay: Radioligand binding, Neuropeptide Y Y1
T18 construct: Eurofins Panlabs, Inc

[1] = molecular target: T19, Nicotinic Acetylcholine α1, Bungarotoxin (Homo sapiens, UniProt P02708+P07510+Q07001); assay: biochemical; format: binding; settings: read-out: % Inh.
T19 construct: Eurofins Panlabs, Inc

Opiate δ1 (OP1, DOP) = molecular target: T20, Opiate δ1 (OP1, DOP) (Homo sapiens, UniProt P41143); assay: Radioligand binding, Opiate δ1 (OP1, DOP)
T20 construct: Eurofins Panlabs, Inc

[2] = molecular target: T21, Platelet Activating Factor (PAF) (Homo sapiens, UniProt P25105); assay: Radioligand binding, Platelet Activating Factor (PAF)
T21 construct: Eurofins Panlabs

Sigma σ1 = molecular target: T22, Sigma σ1 (Homo sapiens, UniProt Q99720); assay: Radioligand binding, Sigma σ1
T22 construct: Eurofins Panlabs

Transporter, GABA = molecular target: T23, Transporter, GABA (Rattus norvegicus, UniProt P23978); assay: Radioligand binding, Transporter, GABA
T23 construct: Eurofins Panlabs

T14 sequence (P35367 whole entry): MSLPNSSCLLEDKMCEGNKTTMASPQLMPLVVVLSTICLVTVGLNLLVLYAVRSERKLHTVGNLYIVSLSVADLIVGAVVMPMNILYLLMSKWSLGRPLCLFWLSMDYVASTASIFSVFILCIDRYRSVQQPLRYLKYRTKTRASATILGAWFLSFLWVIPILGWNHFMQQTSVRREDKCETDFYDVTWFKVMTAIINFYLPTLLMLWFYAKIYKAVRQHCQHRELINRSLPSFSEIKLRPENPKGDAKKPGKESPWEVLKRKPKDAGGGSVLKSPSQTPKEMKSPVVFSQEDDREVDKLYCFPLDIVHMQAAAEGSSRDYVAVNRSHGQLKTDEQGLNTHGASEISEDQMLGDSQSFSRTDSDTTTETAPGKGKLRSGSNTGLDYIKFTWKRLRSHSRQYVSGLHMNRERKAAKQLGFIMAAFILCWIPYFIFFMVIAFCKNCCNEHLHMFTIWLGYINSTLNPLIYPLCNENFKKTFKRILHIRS
T11 sequence (P25101 21-427): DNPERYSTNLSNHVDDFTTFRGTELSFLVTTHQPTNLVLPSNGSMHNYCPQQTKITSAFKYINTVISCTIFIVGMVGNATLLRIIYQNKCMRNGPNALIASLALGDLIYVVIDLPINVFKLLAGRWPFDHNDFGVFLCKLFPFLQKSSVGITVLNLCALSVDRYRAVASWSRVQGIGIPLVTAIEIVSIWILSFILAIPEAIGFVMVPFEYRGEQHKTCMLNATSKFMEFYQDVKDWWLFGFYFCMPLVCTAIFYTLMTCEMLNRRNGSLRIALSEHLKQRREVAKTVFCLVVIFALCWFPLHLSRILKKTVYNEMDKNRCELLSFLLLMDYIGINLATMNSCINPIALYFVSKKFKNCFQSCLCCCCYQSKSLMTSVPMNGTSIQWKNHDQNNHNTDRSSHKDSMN
T2 sequence (P0DMS8 whole entry): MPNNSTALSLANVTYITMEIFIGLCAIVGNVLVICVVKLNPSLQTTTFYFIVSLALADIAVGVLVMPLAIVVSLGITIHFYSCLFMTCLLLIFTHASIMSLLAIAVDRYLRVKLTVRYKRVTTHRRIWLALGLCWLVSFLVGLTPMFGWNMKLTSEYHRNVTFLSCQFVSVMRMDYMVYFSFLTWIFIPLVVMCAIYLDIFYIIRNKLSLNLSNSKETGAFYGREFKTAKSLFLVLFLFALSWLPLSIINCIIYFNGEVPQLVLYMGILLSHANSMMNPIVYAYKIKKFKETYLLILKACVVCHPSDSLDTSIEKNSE
T17 sequence (P08172 whole entry): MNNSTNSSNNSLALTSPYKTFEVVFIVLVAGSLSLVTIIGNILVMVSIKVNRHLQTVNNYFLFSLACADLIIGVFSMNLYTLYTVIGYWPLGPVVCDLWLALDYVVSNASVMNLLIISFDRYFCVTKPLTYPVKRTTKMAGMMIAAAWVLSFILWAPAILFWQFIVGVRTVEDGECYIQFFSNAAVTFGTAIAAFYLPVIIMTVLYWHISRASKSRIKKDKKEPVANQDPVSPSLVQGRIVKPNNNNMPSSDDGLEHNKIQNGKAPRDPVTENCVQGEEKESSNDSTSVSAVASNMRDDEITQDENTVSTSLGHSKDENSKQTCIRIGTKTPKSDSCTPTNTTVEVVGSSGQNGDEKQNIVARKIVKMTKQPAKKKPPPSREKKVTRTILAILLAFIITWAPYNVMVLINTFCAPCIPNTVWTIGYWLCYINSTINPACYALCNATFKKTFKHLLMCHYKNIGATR
T6 sequence (P07550 whole entry): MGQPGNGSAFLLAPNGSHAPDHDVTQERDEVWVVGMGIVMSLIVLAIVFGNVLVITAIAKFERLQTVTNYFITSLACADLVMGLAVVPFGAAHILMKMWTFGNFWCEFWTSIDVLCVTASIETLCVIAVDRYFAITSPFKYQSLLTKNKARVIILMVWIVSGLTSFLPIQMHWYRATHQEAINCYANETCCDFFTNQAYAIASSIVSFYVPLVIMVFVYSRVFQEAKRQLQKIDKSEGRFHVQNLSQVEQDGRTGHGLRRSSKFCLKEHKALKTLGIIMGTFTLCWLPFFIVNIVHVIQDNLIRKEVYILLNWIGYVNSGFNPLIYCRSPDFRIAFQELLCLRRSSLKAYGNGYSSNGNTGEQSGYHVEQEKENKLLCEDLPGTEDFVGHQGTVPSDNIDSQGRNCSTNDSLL
T3 sequence (P43140 whole entry): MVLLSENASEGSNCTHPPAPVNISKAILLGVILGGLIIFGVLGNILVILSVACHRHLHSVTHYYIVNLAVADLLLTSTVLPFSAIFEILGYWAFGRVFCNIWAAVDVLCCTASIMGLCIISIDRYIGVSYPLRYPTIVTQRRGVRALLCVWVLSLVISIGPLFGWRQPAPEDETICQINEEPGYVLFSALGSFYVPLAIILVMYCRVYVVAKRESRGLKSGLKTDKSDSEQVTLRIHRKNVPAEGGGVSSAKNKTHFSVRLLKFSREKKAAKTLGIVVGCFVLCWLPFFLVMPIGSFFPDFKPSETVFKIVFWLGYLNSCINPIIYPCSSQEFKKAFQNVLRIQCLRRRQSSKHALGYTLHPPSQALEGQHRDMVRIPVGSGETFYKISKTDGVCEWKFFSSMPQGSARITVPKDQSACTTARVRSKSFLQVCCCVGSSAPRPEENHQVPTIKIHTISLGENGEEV
T4 sequence (P25100 whole entry): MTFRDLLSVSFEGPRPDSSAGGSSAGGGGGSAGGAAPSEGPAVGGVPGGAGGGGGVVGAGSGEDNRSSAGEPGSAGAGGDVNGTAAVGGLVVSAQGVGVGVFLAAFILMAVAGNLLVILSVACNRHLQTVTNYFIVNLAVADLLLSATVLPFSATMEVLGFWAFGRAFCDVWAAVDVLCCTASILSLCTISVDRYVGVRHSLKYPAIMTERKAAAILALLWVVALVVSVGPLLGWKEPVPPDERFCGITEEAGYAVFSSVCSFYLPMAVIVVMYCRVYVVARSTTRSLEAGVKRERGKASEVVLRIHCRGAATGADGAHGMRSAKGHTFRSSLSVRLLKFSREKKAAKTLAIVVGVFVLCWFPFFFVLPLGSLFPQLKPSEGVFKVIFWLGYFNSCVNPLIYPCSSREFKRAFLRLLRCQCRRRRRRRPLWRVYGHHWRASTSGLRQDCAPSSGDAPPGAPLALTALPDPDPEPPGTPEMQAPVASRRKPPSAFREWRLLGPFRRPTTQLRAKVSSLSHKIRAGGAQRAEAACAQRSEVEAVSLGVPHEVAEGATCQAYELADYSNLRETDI
T15 sequence (P25021 whole entry): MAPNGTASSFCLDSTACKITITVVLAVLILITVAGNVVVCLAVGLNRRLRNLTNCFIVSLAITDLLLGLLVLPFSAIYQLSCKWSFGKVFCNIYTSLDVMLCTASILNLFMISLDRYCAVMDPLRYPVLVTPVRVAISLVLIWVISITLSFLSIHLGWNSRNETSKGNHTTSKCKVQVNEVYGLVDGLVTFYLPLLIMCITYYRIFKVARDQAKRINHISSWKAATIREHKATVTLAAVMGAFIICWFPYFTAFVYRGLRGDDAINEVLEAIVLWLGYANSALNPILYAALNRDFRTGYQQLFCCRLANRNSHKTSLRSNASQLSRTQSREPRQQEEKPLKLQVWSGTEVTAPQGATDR
T21 sequence (P25105 whole entry): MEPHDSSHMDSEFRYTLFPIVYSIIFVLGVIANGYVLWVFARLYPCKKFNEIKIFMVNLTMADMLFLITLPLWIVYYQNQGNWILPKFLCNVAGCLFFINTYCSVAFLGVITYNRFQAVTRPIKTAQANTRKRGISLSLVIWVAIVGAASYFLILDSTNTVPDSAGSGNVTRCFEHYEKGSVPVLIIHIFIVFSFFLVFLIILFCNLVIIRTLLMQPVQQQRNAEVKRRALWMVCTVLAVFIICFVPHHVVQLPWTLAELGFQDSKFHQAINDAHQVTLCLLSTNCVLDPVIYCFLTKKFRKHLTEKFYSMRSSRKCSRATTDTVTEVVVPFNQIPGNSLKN
T16 sequence (Q9Y5N1 whole entry): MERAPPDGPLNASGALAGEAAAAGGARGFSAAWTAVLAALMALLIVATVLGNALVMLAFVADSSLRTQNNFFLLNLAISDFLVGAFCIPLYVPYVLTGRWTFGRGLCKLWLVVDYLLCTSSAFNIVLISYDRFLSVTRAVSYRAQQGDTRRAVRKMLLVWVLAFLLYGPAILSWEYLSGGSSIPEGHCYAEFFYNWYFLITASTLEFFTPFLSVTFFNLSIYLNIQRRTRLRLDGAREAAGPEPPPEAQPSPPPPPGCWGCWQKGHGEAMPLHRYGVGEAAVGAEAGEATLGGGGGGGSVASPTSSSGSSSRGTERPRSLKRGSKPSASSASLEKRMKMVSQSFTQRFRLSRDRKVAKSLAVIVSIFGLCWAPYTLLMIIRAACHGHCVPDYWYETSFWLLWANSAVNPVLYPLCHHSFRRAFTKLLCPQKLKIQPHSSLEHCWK

Structure (SMILES): NS(=O)(=O)c1ccc(NC2=CC(=O)c3ccccc3C2=O)cc1 [4-((1,4-dioxo-1,4-dihydronaphthalen-2-yl)amino)benzenesulfonamide]
- IC50 (A375 cells): > 35 µM

Structure (SMILES): NS(=O)(=O)c1ccc(NC2=CC(=O)c3ccccc3C2=O)cc1 [Example 1, 4-((1,4-Dioxo-1,4-dihydronaphthalen-2-yl)amino)benzenesulfonamide]
- inhibition at 10 µM (Adenosine A1): 46%
- inhibition at 10 µM (Adenosine A3): 15%
- inhibition at 10 µM (Adrenergic α1A): 28%
- inhibition at 10 µM (Adrenergic α1D): 21%
- inhibition at 10 µM (Adrenergic α2A): 33%
- inhibition at 10 µM (Adrenergic β2): 10%
- inhibition at 10 µM (Bradykinin B1): 29%
- inhibition at 10 µM (Calcium Channel N-Type): -3%
- inhibition at 10 µM (Cannabinoid CB1): 31%
- inhibition at 10 µM (Dopamine D1): 21%
- inhibition at 10 µM (Endothelin ETA): 17%
- inhibition at 10 µM (Endothelin ETB): 17%
- inhibition at 10 µM (Glutamate, NMDA, Glycine): 9%
- inhibition at 10 µM (Histamine H1): -5%
- inhibition at 10 µM (Histamine H2): -5%
- inhibition at 10 µM (Histamine H3): -5%
- inhibition at 10 µM (Muscarinic M2): 15%
- inhibition at 10 µM (Neuropeptide Y Y1): -6%
- inhibition at 10 µM [1]: -2%
- inhibition at 10 µM (Opiate δ1 (OP1, DOP)): -6%
- inhibition at 10 µM [2]: 3%
- inhibition at 10 µM (Sigma σ1): 15%
- inhibition at 10 µM (Transporter, GABA): 9%
